Data set [1] deals with T1, ASPH (Homo sapiens, UniProt Q12797).
T1 sequence (Q12797 1-758): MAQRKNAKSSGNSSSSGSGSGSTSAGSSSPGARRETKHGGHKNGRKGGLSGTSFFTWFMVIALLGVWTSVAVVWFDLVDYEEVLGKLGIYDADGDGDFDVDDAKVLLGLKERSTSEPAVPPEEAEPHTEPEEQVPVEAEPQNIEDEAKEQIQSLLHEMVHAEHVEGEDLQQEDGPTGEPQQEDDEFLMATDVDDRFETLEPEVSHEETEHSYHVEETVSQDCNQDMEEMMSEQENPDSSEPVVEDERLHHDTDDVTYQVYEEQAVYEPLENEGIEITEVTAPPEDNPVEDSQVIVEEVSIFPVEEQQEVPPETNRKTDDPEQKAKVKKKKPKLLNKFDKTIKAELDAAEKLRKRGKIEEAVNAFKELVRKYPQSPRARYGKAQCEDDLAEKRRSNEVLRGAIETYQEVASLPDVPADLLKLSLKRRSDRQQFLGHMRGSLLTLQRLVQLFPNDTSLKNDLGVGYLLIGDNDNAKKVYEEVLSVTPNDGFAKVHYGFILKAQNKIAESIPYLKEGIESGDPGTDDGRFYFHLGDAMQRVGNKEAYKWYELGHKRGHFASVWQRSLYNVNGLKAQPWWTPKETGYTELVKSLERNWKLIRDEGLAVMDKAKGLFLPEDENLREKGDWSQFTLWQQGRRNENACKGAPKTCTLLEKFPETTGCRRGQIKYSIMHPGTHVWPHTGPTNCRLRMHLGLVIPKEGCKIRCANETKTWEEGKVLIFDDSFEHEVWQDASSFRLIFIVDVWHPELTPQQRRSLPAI
The experiment in a line: binding to ASPH by isothermal titration calorimetry. From the text:
In the second step arylhydroxytetronimide was sulfonylated with phenylmethansulfonyl chloride in dry tetrahydrofuran to yield compounds of formula 1 (shown below). Compounds were characterized by 1H and 13C nuclear magnetic resonance, high resolution mass spectroscopy, high performance liquid chromatography, infra-red spectroscopy, melting point, elemental analysis and binding to ASPH by isothermal titration calorimetry.
Candidate parent compounds were selected as inhibitors for β-hydroxylase activity based on crystal structure of the catalytic site in the C-terminal region of ASPH and computer assisted drug design.

Data set [2] has as its system FOCUS cells. The experiment in a line: anchorage independent growth in soft agar. Type of data set: cell-based, human. As for the experimental part:
The effect of MO-1-1100 on anchorage independent growth in soft agar was evaluated. The ability of forming colonosphere in soft agar is considered to be a rigid test for tumorigenic potential. ASPH expression results in cells acquiring the ability to form colonospheres in soft agar. […] In order to evaluate the effect of ASPH inhibitor for anchorage independent colony formation, FOCUS cells were incubated in soft agar with or without this ASPH enzymatic inhibitor. After 3 weeks incubation, MO-1-1100 reduced colonosphere formation of FOCUS cells (FIG. 9A). […] This assay is a standard method to monitor malignant growth that reflects the ability to form tumors that grow aggressively in vivo.

In data set [3] the test system is FOCUS HCC cells. Briefly: colony formation assay. The following applies: 1.25 μM. Type of data set: cell-based, human. The method, then: (§1) A MTT assay was performed to evaluate the effect of MO-1-1100 on cell proliferation and viability. MTT is reduced to purple formazan in living cells. FOCUS cells were used as a high ASPH expressing human HCC cell line. […] The MTT assay measures cellular metabolic activity via NAD(P)H-dependent cellular oxidoreductase enzymes. […] In order to evaluate the effect of long-term exposure of MO-1-1100, the colony formation assay (an assay of malignant potential and phenotype) in which cells were treated with inhibitor for 3 weeks was performed.

Data set [4] relates to FOCUS cells. Briefly: invasion assay using matrigel coated membrane. The format is cell-based, human. The following applies: 6 hours, compared to DMSO control. The method, then:
(§2) The β-hydroxylase activity is required for ASPH to mediate its effects on cell motility. Directional motility was measured using Boyden chamber-type culture inserts equipped with porous membranes. FOCUS cells were pretreated with 5 μM of MO-1-1100 and MO-1-500 β-hydroxylase inhibitor for 24 hours, and then placed into the upper chamber. Migration was allowed to proceed for 30 min. ATPLite was used to quantify viable cell density. The cells in the upper well and upper surface of membrane reflects the number of non-migrating cells, luminescence measured at the bottom surface of the membrane reflects the number of migrating and non-adherent cells and luminescence measured in the bottom well was reflect migrating and non-adherent cells. […] Cell invasiveness was assessed by invasion assay using matrigel coated membrane, in which cells were allowed to proceed for 6 hours; those found adhered on the bottom surface of membrane were regarded as invading cells.

The test system of data set [5] is NIH-3T3 cells. Briefly: MTT assay (cell proliferation, metabolic activity). Type of data set: cell-based, mouse. As for the experimental part:
as §1
(Tetrazolium dyes change colour on reduction, which living cells bring about.)

For data set [6], the system named is FOCUS cells. The experiment in a line: directional motility, Boyden chamber-type culture inserts. Type of data set: cell-based, human. The following applies: 5 μM pretreatment for 24 hours, migration 30 min. The method, then: as §2
Data set [7] deals with FOCUS cells. Briefly: MTT assay (cell proliferation, metabolic activity). The following applies: micromolar concentrations. The format is cell-based, human. The method, then: as §1
Data set [8] concerns the target T1, ASPH. The experiment in a line: high throughput 14CO2 capture enzymatic assay for ASPH β-hydroxylase activity (ASPH mAb capture from lysates of treated FOCUS cells). Type of data set: biochemical. Details: endogenous in cells; host or cells: FOCUS cells (human hepatocellular carcinoma line). The method, then: In yet another aspect, the disclosure provides a method determining ASPH activity by contacting an EGF-like domain peptide with a detectably-labeled α-ketoglutarate and ASPH enzyme and measuring β-hydroxylase activity. In one embodiment, said α-ketoglutarate is ^14C-labelled, and wherein β-hydroxylase activity is measured by detecting liberated ^14CO2. In one embodiment, said liberated ^14CO2 is captured on a filter and radioactivity quantified. […] In one embodiment, said EGF-like domain comprises the amino acid sequence of […] (SEQ ID NO:1). In one embodiment, said EGF-like domain peptide comprises the consensus sequence of CDXXXCXXKXGNGXCDXXCNNAACXXDGXDC (SEQ ID NO: 2).
FIG. 3A is a diagram of the biochemical reaction catalyzed by ASPH derived from PC cell lysates. FIG. 3B is a cartoon illustrating the read-out to quantify ASPH activity in PC cells and tumors. FIG. 3C is an image of membrane was obtained by a phosphor-imager after a 16 hour exposure of the trapping filter to a phospho-screen. FIG. 3D is a bar graph showing intensities were calculated by Image J software and compared to a DMSO control. Vertical bars represent standard deviation. These figures show methods of measurement and data relating to ASPH catalytic activity.
EGF and EGF-like domains are well known in the art and generally include six cysteine residues which have been shown (in EGF) to be involved in disulfide bonds. The main structure is a two-stranded beta-sheet followed by a loop to a C-terminal short two-stranded sheet. Subdomains between the conserved cysteines vary in length. Examples include those described in Davis, C G, 1990, New Biol. 2(5):410-9; Blomquist et al., 1984, Proc Natl Acad Sci USA. 81(23):7363-7; Hommel et al., […], J Mol Biol. 227(1):271-82; Doolittle et al., 1984, Nature. 307(5951):558-60; Appella et al., 1988, FEBS Lett. 231(1):1-4; Sorkin A., 2001, Biochem Soc Trans. August; 29(Pt 4):480-4; each of which is hereby incorporated by reference). FIGS. 3A-C represents the strategy for development and characterization of the performance of an assay to measure ASPH enzymatic activity. FIG. 3A describes the biochemical reaction catalyzed by ASPH. FIG. 3B depicts the read-out of the assay. Protein lysates were extracted from FOCUS cells (high level of ASPH cell surface expression) treated with 1-10 μM of each parent compound for 24 hours. The lysates were added into 96 well-plates coated with ASPH monoclonal antibodies (mAbs) to add an antigen specific (ASPH) capture step to the assay design. After incubation and washing, only ASPH is captured on each well. The reaction is carried out with 60 μM of an EGF domain containing 39AA peptide, 100 μM FeCl2 and 40 μM ^14C labeled α-ketoglutarate were added into each well. The ^14CO2 was captured on a glass fiber membrane soaked in Ca(OH)2. […] The compound was further characterized for clinical use as an anti-tumor agent for PC and HCC and other ASPH-expressing tumors.

The source of these data is patent US10106532B2, “Inhibitors of beta-hydroxylase for treatment of cancer” (MIDWESTERN UNIVERSITY, priority 2012, dated 2018).

“Also recorded” adds a separate entry of the source.

As a reminder, the melting point is the temperature, or range, at which the solid turns liquid. In turn, `NC1=C(OS(=O)(=O)c2ccccc2)C(=O)C(c2ccc(Cl)cc2)O1` (centres unmarked) [Compound 7c, 2-(4-chlorophenyl)-4-[[phenylsulfonyl]oxy]-5-amino-3(2H)-furanone] showed a melting point of 190 to 195 °C.

The compound `NC1=C(O)C(=O)C(c2ccc(Cl)cc2)O1` (centres unmarked) [Example 1c, 5-amino-4-hydroxy-2-(4-chlorophenyl)-furan-3-one] registered a melting point of 221 to 222 °C. The same measure, in the same setting: the same measure for `NC1=C(O)C(=O)C(c2ccccc2F)O1` (centres unmarked) [Example 1j, 5-amino-4-hydroxy-2-(2-fluorophenyl)-furan-3-one]: 160 to 163 °C; for `NC1=C(O)C(=O)C(c2cccc(F)c2)O1` (centres unmarked) [Example 1k, 5-amino-4-hydroxy-2-(3-fluorophenyl)-furan-3-one]: 168 °C; for `NC1=C(O)C(=O)C(c2cccc(F)c2F)O1` (centres unmarked) [Example 1m, 5-amino-4-hydroxy-2-(2,3-difluorophenyl)-furan-3-one]: 193 °C. Same read-out and setting: under `NC1=C(O)C(=O)C(c2ccc(F)cc2F)O1` (centres unmarked) [Example 1n, 5-amino-4-hydroxy-2-(2,4-difluorophenyl)-furan-3-one] stands 182 to 183 °C; under `NC1=C(O)C(=O)C(c2cc(F)ccc2F)O1` (centres unmarked) [Example 1o, 5-amino-4-hydroxy-2-(2,5-difluorophenyl)-furan-3-one], 196 °C. Consider `NC1=C(O)C(=O)C(c2c(F)cccc2F)O1` (centres unmarked) [Example 1p, 5-amino-4-hydroxy-2-(2,6-difluorophenyl)-furan-3-one], for which the melting point fell in the range of 159 to 160 °C. On the same count and under the same terms, under `NC1=C(O)C(=O)C(c2ccc(F)c(F)c2)O1` (centres unmarked) [Example 1q, 5-amino-4-hydroxy-2-(3,4-difluorophenyl)-furan-3-one] stands 190 to 194 °C; under `NC1=C(O)C(=O)C(c2cc(F)cc(F)c2)O1` (centres unmarked) [Example 1r, 5-amino-4-hydroxy-2-(3,5-difluorophenyl)-furan-3-one], 190 to 191 °C; under `CC(=O)OC1=C(N)OC(c2ccc(Cl)cc2)C1=O` (centres unmarked) [Example 2c, 2-(4-chlorophenyl)-4-(acetoxy)-5-amino-3(2H)-furanone], 221 to 222 °C. For `CCS(=O)(=O)Nc1oc(-c2ccc(Cl)cc2)c(O)c1O` [MO-1-500], in data set [1], the ASPH binding entry is “confirmed to demonstrate ASPH binding”. The “number of colonies formed and colony size in soft agar” value in data set [2] (1 μM) was “dramatically reduced”. In [2] (0.5, 1, and 5 μM), the “number and size of FOCUS cell colonies in soft agar” value was “striking reduction”. In addition, the colony formation entry in data set [3] was “substantial inhibitory effects; also recorded: strikingly inhibits”. The invasiveness result in data set [4] is reported as “pronounced effect”. The “specificity for the β-hydroxylase activity of ASPH” value in data set [5] (FOCUS (express ASPH) versus NIH-3T3 (do not express ASPH)) is reported as “not specific for ASPH”. The “cell proliferation and metabolic activity” value in data set [5] (NIH-3T3 cells, micromolar concentrations) is reported as “striking affects; also recorded: growth inhibited”; in [7], “striking affects; also recorded: growth inhibited”. In addition, in data set [6], the “cell migration / motility” value was “pronounced effect”. Also, the “identified as hits (screening for inhibition of β-hydroxylase activity)” value in [8] is listed as “identified as hits”. Moreover, the ASPH enzymatic activity entry in data set [8] (5 μM) is “inhibited”. Also, the “ASPH enzymatic inhibitory activity (β-hydroxylase)” value in data set [8] (concentration not given) is “inhibit”.
